The source of these data is article PMC12323867 (RSC Medicinal Chemistry, 2025).

Data set [1] concerns the target T1, LSD1 in HCT116 cells (Homo sapiens, UniProt O60341).
T1 construct: host or cells: HCT116
In words: LSD1 degradation (LSD1 abundance) by western blot. It counts as cell-based. The note with it: HCT116, 0.1–10 μM, 24 hours, LSD1 antibody. How it is done: Using the same conditions, we also determined the effects of SP2509, 25, 27, 28, 30 and 31 on histone H3 lysine 4 dimethyl (H3K4me2) a validated substrate for LSD1 using a specific antibody for H3K4me2 (Fig. S4 ^†).
Compounds were tested at concentration ranges of 0.2–20 μM and LSD1 abundance was quantified at 24 hours (Fig. S5 ^†). 49, 52 and 54 were also evaluated at 48 and 72 hours. […] We also determined the effects of these compounds on the histone methyl marker H3K4me2 (Fig. S5 and S6 ^†).
2.5 Protocols for LSD1 degradation and histone methylation in HCT116 cells HCT116 human colon carcinoma cells were grown in Dulbecco’s Modified Eagle Medium (DMEM) supplemented with Fetal Bovine Serum (FBS, 10% final concentration) and 1x glutamine/penicillin/streptomycin. Cells were incubated at 37 °C and 5% CO2. Cells were treated […]
untreated (WT) cells were included as controls.
(§1) HCT116 cells were seeded into six well plates (400000 cells per well) and after requisite compound treatment time (24h, 48h, 72h) cells were harvested and either snap-frozen in liquid nitrogen or lysed in lysis buffer (50mM Tris-HCl, 150 mM NaCl, 0.5% NP-40, 0.5% Triton X-100 + protease inhibitor) on ice for 30 mins. This was centrifuged (15000 rpm, 4 °C, 15 mins) and the supernatant collected.
H2SO4 (0.4 M, equal volume) was added to the pellets for histone extraction and the tubes incubated overnight at 4 °C. Following this, the histone extract was centrifuged (15000 rpm, 4 °C, 15 mins) and the supernatant collected. Protein concentrations of whole cell extract were quantified via Bradford Assay using BIO-RAD Protein Assay Dye Reagent Concentrate. […]
(§2) or an equivalent volume of histone extract loaded per lane, with all extracts dyed with 4x NuPAGE LDS Sample Buffer. PageRuler Plus Prestained Ladder was used as a reference. Gel electrophoresis was carried out at 140 V for 60-90 mins, following which the proteins were transferred onto nitrocellulose membrane at 30 V for 60 mins. Membranes were blocked in LI-COR Intercept Blocking Buffer overnight at RT on a roller, following which the membrane was probed with primary antibodies for 1 h at RT. The membrane was washed with PBS + 0.1% Tween (3 x 10 mins), then incubated with secondary antibodies for 50 mins at RT. The membrane was washed again (PBS Tween 2 x 10 mins, PBS 1 x 10 mins) following which the blot was visualised with the Odyssey Infrared Imaging System. Image processing and quantification was performed with ImageStudio Lite. […]
(§3) a-tubulin (mouse) – Sigma, t5168 (1:10000 dilution)

Data set [2] has as its system HCT116 cells. Put plainly: CTG cell viability assay. The class given is cell-based, human. The note with it: HCT116, CellTiter-Glo, 0.0041-10 uM, 24-48 h (Fig. S3). On the procedure: 2.4. CTG cell viability assays
HCT116 cells were seeded onto 96-well plates at a density of 2000 cells/well and allowed 24 h to settle. Cells were then treated with LSD1 inhibitors (0.0041-10 uM) alongside WT, DMSO and cell free control wells for 24-48 h. After this time, plates were equilibrated to RT for 30 mins, then CellTiter-Glo (Promega, G9242) reagent (5 uL/100 uL media) was added. Cells were lysed on an orbital shaker for 10 mins, then incubated at RT for 2 mins to allow luminescence to stabilise, following which luminescence was recorded on a HiDEX Sense microplate reader. To obtained plotted values, luminescence of each tested well was divided by that of the DMSO control, which were plotted against concentration using GraphPad Prism. […] was applied to obtain apparent IC50 values where possible.
Figure S3. Cell viability dose response curves
(1 picture or pasted object on this page, not shown here)
(In general: Cellular ATP, detected with luciferase, serves as a proxy for viable cell number.)

In data set [3] the test system is H3K4me2 in HCT116 cells. Put plainly: Histone methylation H3K4me2 by western blot. It counts as cell-based, human. The note with it: HCT116, 0.1–10 μM, 24 hours, H3K4me2 antibody. How it is done: We next screened 25–33 and SP2509 over a concentration range of 0.1–10 μM in HCT116 cells (obtained from ATCC, CCL-247) and determined LSD1 abundance after 24 hours with an antibody for LSD1 (Fig. S4 ^†). […] Using the same conditions, we also determined the effects of SP2509, 25, 27, 28, 30 and 31 on histone H3 lysine 4 dimethyl (H3K4me2) a validated substrate for LSD1 using a specific antibody for H3K4me2 (Fig. S4 ^†).
Compounds 39–41, 49, 52 and 54 were screened for LSD1 degradation in HCT116 cells using a specific antibody for LSD1. This was performed side-by-side with TCP. Compounds were tested at concentration ranges of 0.2–20 μM and LSD1 abundance was quantified at 24 hours (Fig. S5 ^†). 49, 52 and 54 were also evaluated at 48 and 72 hours. […] We also determined the effects of these compounds on the histone methyl marker H3K4me2 (Fig. S5 and S6 ^†).
2.5 Protocols for LSD1 degradation and histone methylation in HCT116 cells HCT116 human colon carcinoma cells were grown in Dulbecco’s Modified Eagle Medium (DMEM) supplemented with Fetal Bovine Serum (FBS, 10% final concentration) and 1x glutamine/penicillin/streptomycin. Cells were incubated at 37 °C and 5% CO2. Cells were treated with compounds (0.1-20 µM) with a final DMSO volume of 0.04%. DMSO (0.04%) treated and untreated (WT) cells were included as controls.
as §1
H2SO4 (0.4 M, equal volume) was added to the pellets for histone extraction and the tubes incubated overnight at 4 °C. Following this, the histone extract was centrifuged (15000 rpm, 4 °C, 15 mins) and the supernatant collected. Protein concentrations of whole cell extract were quantified via Bradford Assay using BIO-RAD Protein Assay Dye Reagent Concentrate.
as §2, with “Western blots were run on NuPAGE 4-12% Bis-Tris gels, with 30 µg of protein (whole cell extract) or an” for “or an”
as §3

Data set [4] relates to LSD1. Particulars: evaluated not part of the CoREST complex; read-out: LSD1 IC50; cited from earlier work.

In the case of `C/C(=N\NC(=O)c1cccc(S(=O)(=O)N2CCOCC2)c1)c1cc(Cl)ccc1O` [SP2509, reference compound], the “LSD1 abundance (degradation)” value in data set [1] is recorded as “no degradation or change in LSD1 levels”. For the same compound, the “cytotoxic effects in cells” value in data set [2] is on record as “significant cytotoxic effects”. The H3K4me2 abundance entry in data set [3] is “no increase in H3K4me2”. In addition, in data set [4], the IC50 (in general, the concentration at which inhibition is half-maximal) was 13 nM.
